In the Bradley open melting point set (2014):

Row | melting point [°C] | SMILES
1 | 82 | O=C1Cc2cccc(Br)c21 [5-bromobicyclo[4.2.0]octa-1,3,5-trien-7-one]
2 | 168 | O=C(O)c1cc(Br)ccc1O [5-bromosalicylic acid]
3 | 140 | O=C(O)c1ccc(Br)s1 [5-bromothiophene-2-carboxylic acid]
4 | 164 | COc1cc(C=O)cc(Br)c1O [5-bromovanillin]
5 | 220 | OB(O)c1cc(Cl)c(F)cc1F [5-chloro-2,4-difluorobenzeneboronic acid]
6 | 86 | OCc1cc(Cl)ccc1O [5-chloro-2-hydroxybenzyl alcohol]
7 | 83 | COc1ccc(Cl)cc1N [5-chloro-o-anisidine]
8 | 47 | [O-][n+]1onc2cc(Cl)ccc21 [5-chlorobenzofuroxan]
9 | 101 | O=Cc1cc(Cl)ccc1O [5-chlorosalicylaldehyde]
10 | 127 | N#Cc1ccc(B(O)O)s1 [5-cyanothiophene-2-boronic acid]
11 | 153 | CCc1cnc(C(=O)O)c(C(=O)O)c1 [5-ethylpyridine-2,3-dicarboxylic acid]
12 | 283 | O=c1[nH]cc(F)c(=O)[nH]1 [5-fluorouracil]
13 | 119 | Cc1cc(B(O)O)sc1C=O [5-formyl-4-methylthiophene-2-boronic acid]
14 | 109 | Oc1ccc2[nH]ccc2c1 [5-hydroxyindole]
15 | 86 | COc1ccc(I)cc1N [5-iodo-2-methoxyaniline]
16 | 48 | Cc1ccc(I)cc1N [5-iodo-2-methylaniline]
17 | 86 | COc1ccc(C(C)C)cc1B(O)O [5-isopropyl-2-methoxybenzeneboronic acid]
18 | 87 | COc1ccc2[nH]c(C)cc2c1 [5-methoxy-2-methylindole]
19 | 168 | Cc1[nH]cnc1C=O [5-methylimidazole-4-carboxaldehyde]
20 | 172 | Cc1cc(C(=O)O)no1 [5-methylisoxazole-3-carboxylic acid]

Row | melting point [°C] | SMILES
21 | 153 | Cc1ccc(O)c(C(=O)O)c1 [5-methylsalicylic acid]
22 | 187 | O=C(O)c1ccc([N+](=O)[O-])o1 [5-nitro-2-furoic acid]
23 | 176 | COc1cc(C=O)cc([N+](=O)[O-])c1O [5-nitrovanillin]
24 | 130 | CC(C)CCC[C@@H](C)[C@H]1CC[C@H]2[C@@H]3CC[C@H]4CC(=O)CC[C@]4(C)[C@H]3CC[C@]12C [5alpha-cholestan-3-one]
25 | 185 | Nc1ccc2cc(O)ccc2c1 [6-Amino-2-naphthalenol]
26 | 220 | CCCc1cc(O)nc(S)n1 [6-Propyl-2-sulfanylpyrimidin-4-ol]
27 | 57 | NCCCCCCO [6-amino-1-hexanol]
28 | 81 | Cc1nc(N)ccc1Br [6-amino-3-bromo-2-methylpyridine]
29 | 165 | Cc1nc(N)ccc1C#N [6-amino-3-cyano-2-methylpyridine]
30 | 109 | OB(O)c1ccc(OCc2ccccc2)nc1 [6-benzyloxypyridine-3-boronic acid]
31 | 164 | Cc1cc(Br)ncc1B(O)O [6-bromo-4-methylpyridine-3-boronic acid]
32 | 72 | COc1cc(Cl)nc(OC)n1 [6-chloro-2,4-dimethoxypyrimidine]
33 | 182 | Cc1cc(B(O)O)cnc1Cl [6-chloro-5-methylpyridine-3-boronic acid]
34 | 249 | O=C(O)c1ccc2cc(O)ccc2c1 [6-hydroxy-2-naphthoic acid]
35 | 103 | COc1ccc2c(c1)C(=O)CC2 [6-methoxy-1-indanone]
36 | 79 | COc1ccc2c(c1)CCCC2=O [6-methoxy-1-tetralone]
37 | 51 | COc1ccc(C=O)cn1 [6-methoxypyridine-3-carboxaldehyde]
38 | 31 | Cc1cccc(C=O)n1 [6-methylpyridine-2-carboxaldehyde]
39 | 188 | O=c1ccc2cc([N+](=O)[O-])ccc2o1 [6-nitrocoumarin]
40 | 130 | C1=CC2=CC=C3C=CC=CC4=C3CC2=C(C=C1)C=C4 [6H-5,7-ethenocyclohepta[b]heptalene]

Row | melting point [°C] | SMILES
41 | 66 | FC(F)(F)c1ccc2cccnc2c1 [7-(trifluoromethyl)quinoline]
42 | 98 | Clc1cccc2c1=NC(c1ccccc1)C=2c1ccccc1 (configuration not stated) [7-chloro-2,3-diphenyl-1H-indole]
43 | 144 | NS(=O)(=O)c1ccc(F)c2nonc12 [7-fluorobenzofurazan-4-sulfonamide]
44 | 110 | COc1ccc2c(=O)cc(-c3ccccc3)oc2c1 [7-methoxyflavone]
45 | 81 | Cc1ccc(O)c2c1CCC2 [7-methyl-4-indanol]
46 | 180 | O=[N+]([O-])c1ccc(O)c2ncccc12 [8-hydroxy-5-nitroquinoline]
47 | 109 | c1ccc2c(c1)Cc1ccccc1C2 [9,10-Dihydroanthracene]
48 | 249 | c1ccc(-c2c3ccccc3c(-c3ccccc3)c3ccccc23)cc1 [9,10-Diphenylanthracene]
49 | 251 | c1ccc(-c2c3ccccc3c(-c3ccccc3)c3ccccc23)cc1 [9,10-diphenylanthracene]
50 | 84 | O=C1c2ccccc2-c2ccccc21 [9-fluorenone]
51 | 83 | O=C1c2ccccc2-c2ccccc21 [9H-Fluoren-9-one]
52 | 116 | c1ccc2c(c1)Cc1ccccc1-2 [9H-Fluorene]
53 | 209 | O=c1c2ccccc2sc2ccccc12 [9H-Thioxanthen-9-one]
54 | 36 | OCCCCCCCCCCc1ccccc1 [10-phenyl-1-decanol]
55 | 108 | CC(CCC(=O)O)C1CCC2C3CCC4CC(=O)CCC4(C)C3CC(O)C12C (configuration not stated) [12-hydroxy-3-oxocholan-24-oic acid]
56 | 78 | CCCCCCCCCCCCCC(=O)CCCCCCCCCCCCC [14-heptacosanone]
57 | 86 | O=C(O)CCCCCCCCCCCCCCO [15-hydroxypentadecanoic acid]
58 | 135 | CC(=O)OC1CCC2(C)C(CCC3C2CCC2(C)C3CCC2(C)CCc2ccccc2)C1 (configuration not stated) [17-methyl-21-phenylpregnan-3-yl acetate]

Row | SMILES | melting point [°C]
59 | O=C(Cl)c1cncc(Br)c1 [5-bromonicotinoyl chloride] | 73
60 | CCCCC1(CC)C(=O)NC(=O)NC1=O [5-butyl-5-ethylbarbituric acid] | 128
61 | Oc1cc(Cl)ccc1Oc1ccc(Cl)cc1Cl [5-chloro-2-(2,4-dichlorophenoxy)phenol] | 57
62 | CC(C)C1C(=O)NC(=O)NC1=O [5-isopropylbarbituric acid] | 215
63 | CC(=O)OC1CCC2(C)C(CC(=O)C3C4CCC(=O)C4(C)CCC32)C1 (configuration not stated) [7,17-dioxoandrostan-3-yl acetate] | 165
64 | O=C1c2ccccc2C(=O)c2ccccc21 [9,10-anthraquinone] | 285
65 | Cc1c2ccccc2cc2ccccc12 [9-Methylanthracene] | 78
66 | O=C(Cl)OCC1c2ccccc2-c2ccccc21 [9-fluorenylmethyl chloroformate] | 62
67 | O=C(O)CCCCCCCCCCCCCCCO [16-hydroxyhexadecanoic acid] | 99
